Reference: PubChem BioAssay AID1259407 (Chemical Carcinogenesis Research Information System (CCRIS), 2018)
Calls of active or inactive are those of the source. How the calls were made is not given here.

System: CCRIS mutagenicity, Ames/micronucleus/aberration tests
Test: CCRIS mutagenicity studies
[1] = Test System: AMES SALMONELLA TYPHIMURIUM, Strain/Indicator: TA98, Metabolic Activation: NONE, Method: STANDARD PLATE
[2] = Test System: AMES SALMONELLA TYPHIMURIUM, Strain/Indicator: TA98, Metabolic Activation: RAT, LIVER, S-9, AROCLOR 1254, Method: STANDARD PLATE
[3] = Test System: AMES SALMONELLA TYPHIMURIUM, Strain/Indicator: TA100, Metabolic Activation: NONE, Method: STANDARD PLATE
[4] = Test System: AMES SALMONELLA TYPHIMURIUM, Strain/Indicator: TA100, Metabolic Activation: RAT, LIVER, S-9, AROCLOR 1254, Method: STANDARD PLATE
[5] = Test System: AMES SALMONELLA TYPHIMURIUM, Strain/Indicator: TA1535, Metabolic Activation: NONE, Method: STANDARD PLATE
[6] = Test System: AMES SALMONELLA TYPHIMURIUM, Strain/Indicator: TA1537, Metabolic Activation: NONE, Method: STANDARD PLATE
[7] = Test System: AMES SALMONELLA TYPHIMURIUM, Strain/Indicator: TA98, Metabolic Activation: S-9, Method: STANDARD PLATE
[8] = Test System: AMES SALMONELLA TYPHIMURIUM, Strain/Indicator: TA100, Metabolic Activation: S-9, Method: STANDARD PLATE

CC1(c2ccc(Oc3ccccc3)cc2)OC(=O)N(Nc2ccccc2)C1=O (stereo not drawn)
mutagenic call (End Point: In vitro chromosomal aberrations, Test System: Human (male and female) lymphocytes, Metabolic Activation: None): inactive; negative | mutagenic call (End Point: In vitro chromosomal aberrations, Test System: Human (male and female) lymphocytes, Metabolic Activation: S-9): inactive; negative | mutagenic call (End Point: In vivo micronucleus, Test System: Bone marrow polychromatic erythrocytes, Species: Mouse, Strain/Sex: Crl:CD-1(ICR)BR/Male and female): inactive; negative | mutagenic call (End Point: UDS, Species: Rat, Strain/Sex: Sprague-Dawley Crl:CD BR/Male, Route: Oral): inactive; negative | mutagenic call (Test System: Ames Salmonella typhimurium, Strain/Indicator: TA97, Metabolic Activation: None, Method: Plate incorporation): inactive; negative | mutagenic call (Test System: Ames Salmonella typhimurium, Strain/Indicator: TA97, Metabolic Activation: Rat, Liver, S-9, Method: Plate incorporation): inactive; negative | mutagenic call (Test System: Ames Salmonella typhimurium, Strain/Indicator: TA98, Metabolic Activation: None, Method: Plate incorporation): inactive; negative | mutagenic call (Test System: Ames Salmonella typhimurium, Strain/Indicator: TA98, Metabolic Activation: Rat, Liver, S-9, Method: Plate incorporation): inactive; negative | mutagenic call (Test System: Ames Salmonella typhimurium, Strain/Indicator: TA100, Metabolic Activation: None, Method: Plate incorporation): inactive; negative | mutagenic call (Test System: Ames Salmonella typhimurium, Strain/Indicator: TA100, Metabolic Activation: Rat, Liver, S-9, Method: Plate incorporation): inactive; negative | mutagenic call (Test System: Ames Salmonella typhimurium, Strain/Indicator: TA1535, Metabolic Activation: None, Method: Plate incorporation): inactive; negative | mutagenic call (Test System: Ames Salmonella typhimurium, Strain/Indicator: TA1535, Metabolic Activation: Rat, Liver, S-9, Method: Plate incorporation): inactive; negative | mutagenic call (Test System: Chinese hamster ovary cells, Strain/Indicator: CHO-K1-BH4 (HGPRT), Metabolic Activation: None, Method: Suspension/plate?): inactive; negative | mutagenic call (Test System: Chinese hamster ovary cells, Strain/Indicator: CHO-K1-BH4 (HGPRT), Metabolic Activation: Rat, Liver, S-9, Method: Suspension/plate?): inactive; negative | mutagenic call (Test System: E. coli, Strain/Indicator: WP2 uvrA (pKM101), Metabolic Activation: None, Method: Plate incorporation): inactive; negative | mutagenic call (Test System: E. coli, Strain/Indicator: WP2 uvrA (pKM101), Metabolic Activation: Rat, Liver, S-9, Method: Plate incorporation): inactive; negative

O=C(CBr)c1ccc(-c2ccccc2)cc1
mutagenic call (Test System: AMES SALMONELLA TYPHIMURIUM, Strain/Indicator: TA98, Metabolic Activation: NONE, Method: PREINCUBATION): inactive; negative | mutagenic call (Test System: AMES SALMONELLA TYPHIMURIUM, Strain/Indicator: TA98, Metabolic Activation: RAT, LIVER, S-9, PCB, Method: PREINCUBATION): inactive; negative | mutagenic call (Test System: AMES SALMONELLA TYPHIMURIUM, Strain/Indicator: TA100, Metabolic Activation: RAT, LIVER, S-9, PCB, Method: PREINCUBATION): inactive; negative | mutagenic call (Test System: E. COLI, Strain/Indicator: WP2 UVRA, Metabolic Activation: NONE, Method: PREINCUBATION): inactive; negative

c1ccc2c(c1)ccc1cc3c(ccc4ccncc43)cc12
mutagenic call [1]: inactive; negative | mutagenic call (Test System: AMES SALMONELLA TYPHIMURIUM, Strain/Indicator: TA98, Metabolic Activation: RAT, LIVER, S-9, AROCLOR 1254 (10%), Method: STANDARD PLATE): active; positive | mutagenic call [2]: active; positive | mutagenic call [3]: inactive; negative | mutagenic call (Test System: AMES SALMONELLA TYPHIMURIUM, Strain/Indicator: TA100, Metabolic Activation: RAT, LIVER, S-9, 1254 (10%), Method: STANDARD PLATE): active; positive | mutagenic call [4]: active; positive

C=CC(=O)OCCOCCOC(=O)C=C
mutagenic call [1]: inactive; negative | mutagenic call [2]: inactive; negative | mutagenic call (Test System: AMES SALMONELLA TYPHIMURIUM, Strain/Indicator: TA98, Metabolic Activation: RAT, LIVER, S-9, SODIUM PHENOBARBITAL, Method: STANDARD PLATE): inactive; negative | mutagenic call [3]: inactive; negative | mutagenic call [4]: inactive; negative | mutagenic call (Test System: AMES SALMONELLA TYPHIMURIUM, Strain/Indicator: TA100, Metabolic Activation: RAT, LIVER, S-9, SODIUM PHENOBARBITAL, Method: STANDARD PLATE): inactive; negative | mutagenic call [5]: inactive; negative | mutagenic call (Test System: AMES SALMONELLA TYPHIMURIUM, Strain/Indicator: TA1535, Metabolic Activation: RAT, LIVER, S-9, AROCLOR 1254, Method: STANDARD PLATE): inactive; negative | mutagenic call (Test System: AMES SALMONELLA TYPHIMURIUM, Strain/Indicator: TA1535, Metabolic Activation: RAT, LIVER, S-9, SODIUM PHENOBARBITAL, Method: STANDARD PLATE): inactive; negative | mutagenic call [6]: inactive; negative | mutagenic call (Test System: AMES SALMONELLA TYPHIMURIUM, Strain/Indicator: TA1537, Metabolic Activation: RAT, LIVER, S-9, AROCLOR 1254, Method: STANDARD PLATE): inactive; negative | mutagenic call (Test System: AMES SALMONELLA TYPHIMURIUM, Strain/Indicator: TA1537, Metabolic Activation: RAT, LIVER, S-9, SODIUM PHENOBARBITAL, Method: STANDARD PLATE): inactive; negative | mutagenic call (Test System: AMES SALMONELLA TYPHIMURIUM, Strain/Indicator: TA1538, Metabolic Activation: NONE, Method: STANDARD PLATE): inactive; negative | mutagenic call (Test System: AMES SALMONELLA TYPHIMURIUM, Strain/Indicator: TA1538, Metabolic Activation: RAT, LIVER, S-9, AROCLOR 1254, Method: STANDARD PLATE): inactive; negative | mutagenic call (Test System: AMES SALMONELLA TYPHIMURIUM, Strain/Indicator: TA1538, Metabolic Activation: RAT, LIVER, S-9, SODIUM PHENOBARBITAL, Method: STANDARD PLATE): inactive; negative

O=C1c2c(O)ccc(O)c2C(=O)c2c(NCCO)ccc(NCCO)c21
mutagenic call (Test System: MOUSE LYMPHOMA, Strain/Indicator: L5178Y (TK+/TK-), Metabolic Activation: NONE, Method: SUSPENSION/PLATE): active; positive

CC(=O)Oc1ccc2c(c1)OC1(C)OOC21C (stereo not drawn)
mutagenic call (Test System: AMES SALMONELLA TYPHIMURIUM, Strain/Indicator: TA100, Metabolic Activation: NONE, Method: PREINCUBATION): active; positive

CC1=CCC(O)(C(C)C)CC1 (stereo not drawn)
mutagenic call [1]: inactive; negative | mutagenic call (Test System: AMES SALMONELLA TYPHIMURIUM, Strain/Indicator: TA98, Metabolic Activation: RAT, LIVER, S-9, Method: STANDARD PLATE): inactive; negative | mutagenic call [3]: inactive; negative | mutagenic call (Test System: AMES SALMONELLA TYPHIMURIUM, Strain/Indicator: TA100, Metabolic Activation: RAT, LIVER, S-9, Method: STANDARD PLATE): inactive; negative | mutagenic call (Test System: AMES SALMONELLA TYPHIMURIUM, Strain/Indicator: TA102, Metabolic Activation: NONE, Method: STANDARD PLATE): inactive; negative | mutagenic call (Test System: AMES SALMONELLA TYPHIMURIUM, Strain/Indicator: TA102, Metabolic Activation: RAT, LIVER, S-9, Method: STANDARD PLATE): inactive; negative

O=[N+]([O-])c1ccc(/C=C/c2cccc(Cl)c2)cc1
mutagenic call (Test System: AMES SALMONELLA TYPHIMURIUM, Strain/Indicator: TA98 (NR), Metabolic Activation: NONE, Method: STANDARD PLATE): active; positive | mutagenic call (Test System: AMES SALMONELLA TYPHIMURIUM, Strain/Indicator: TA98 (NR), Metabolic Activation: S-9, Method: STANDARD PLATE): active; positive | mutagenic call [1]: active; positive | mutagenic call [7]: active; positive | mutagenic call (Test System: AMES SALMONELLA TYPHIMURIUM, Strain/Indicator: TA100(NR), Metabolic Activation: NONE, Method: STANDARD PLATE): inactive; negative | mutagenic call (Test System: AMES SALMONELLA TYPHIMURIUM, Strain/Indicator: TA100 (NR), Metabolic Activation: S-9, Method: STANDARD PLATE): active; positive | mutagenic call [3]: active; positive | mutagenic call [8]: active; positive

[CH3][Sn]([Cl])([Cl])[Cl]
mutagenic call (Test System: AMES SALMONELLA TYPHIMURIUM, Strain/Indicator: TA98, Metabolic Activation: NONE, Method: SUSPENSION/PLATE): inactive; negative | mutagenic call (Test System: AMES SALMONELLA TYPHIMURIUM, Strain/Indicator: TA100, Metabolic Activation: NONE, Method: SUSPENSION/PLATE): inactive; negative

CC/C1=C/[C@@H](C)[C@](C)(OC(C)=O)C(=O)OC/C2=C/CN(C)CC[C@@H](OC1=O)C2=O
mutagenic call (Test System: UDS RAT HEPATOCYTES, Strain/Indicator: THY INCORP, Metabolic Activation: NONE, Method: AUTORADIOGRAPHY): active; positive

Cc1ccc2nsc(NC(=O)C(Cl)Cl)c2c1
mutagenic call [1]: active; positive | mutagenic call [7]: active; positive | mutagenic call [3]: active; positive | mutagenic call [8]: active; positive | mutagenic call [5]: inactive; negative | mutagenic call (Test System: AMES SALMONELLA TYPHIMURIUM, Strain/Indicator: TA1535, Metabolic Activation: S-9, Method: STANDARD PLATE): inactive; negative | mutagenic call [6]: active; positive | mutagenic call (Test System: AMES SALMONELLA TYPHIMURIUM, Strain/Indicator: TA1537, Metabolic Activation: S-9, Method: STANDARD PLATE): active; positive
